Tests used:
Experiment in all cases: Histone peptide microarray
Assay type in all cases: binding, human
KDM5A (3) = settings: KDM5A (3), GST-tagged; arrays performed twice, n of 4
Procedure, shortened: (§1)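 Binding read as mean relative signal from 4 replicates; microarray held 293 synthetic histone peptides with single or combinatorial PTMs. Each GST-tagged PHD reader was applied at 0.5 μM using the optimized Petell protocol.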

ING1 = settings: ING1, GST-tagged; arrays performed twice, n of 4
Procedure, shortened: as §1

PHRF1 (RP) = settings: PHRF1 (RP), GST-tagged; arrays performed twice, n of 4
Procedure, shortened: as §1

KDM5A (1) = settings: KDM5A (1), GST-tagged; arrays performed twice, n of 4
Procedure, shortened: as §1

CHD5 (PPCC) = settings: CHD5 (PPCC), GST-tagged; arrays performed twice, n of 4
Procedure, shortened: as §1

DPF2 (PPC2W2) = settings: DPF2 (PPC2W2), GST-tagged; arrays performed twice, n of 4
Procedure, shortened: as §1

PHF21A = settings: PHF21A, GST-tagged; arrays performed twice, n of 4
Procedure, shortened: as §1

ING5 = settings: ING5, GST-tagged; arrays performed twice, n of 4
Procedure, shortened: as §1

BAZ2B = settings: BAZ2B, GST-tagged; arrays performed twice, n of 4
Procedure, shortened: as §1

PHF8 = settings: PHF8, GST-tagged; arrays performed twice, n of 4
Procedure, shortened: as §1

PHF23 = settings: PHF23, GST-tagged; arrays performed twice, n of 4
Procedure, shortened: as §1

PHF2 = settings: PHF2, GST-tagged; arrays performed twice, n of 4
Procedure, shortened: as §1

KDM4C (TTP) = settings: KDM4C (TTP), GST-tagged; arrays performed twice, n of 4
Procedure, shortened: as §1

MORC3 (CW) = settings: MORC3 (CW), GST-tagged; arrays performed twice, n of 4
Procedure, shortened: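 Each reader, produced as a GST fusion and purified, was tested at 0.5 μM on synthetic histone peptides (293 in total) carrying single or combinatorial marks. Intensities averaged over four replicates.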

ING4 = settings: ING4, GST-tagged; arrays performed twice, n of 4
Procedure, shortened: as §1

TRIM66 (PB) = settings: TRIM66 (PB), GST-tagged; arrays performed twice, n of 4
Procedure, shortened: as §1

ING3 = settings: ING3, GST-tagged; arrays performed twice, n of 4
Procedure, shortened: as §1

AIRE (PP) = settings: AIRE (PP), GST-tagged; arrays performed twice, n of 4
Procedure, shortened: as §1

DIDO1 = settings: DIDO1, GST-tagged; arrays performed twice, n of 4
Procedure, shortened: as §1

ING2 = settings: ING2, GST-tagged; arrays performed twice, n of 4
Procedure, shortened: as §1

CHD4 (PPCC) = settings: CHD4 (PPCC), GST-tagged; arrays performed twice, n of 4
Procedure, shortened: as §1

BPTF (PB) = settings: BPTF (PB), GST-tagged; arrays performed twice, n of 4
Procedure, shortened: as §1

CHD5 (PCC) = settings: CHD5 (PCC), GST-tagged; arrays performed twice, n of 4
Procedure, shortened: as §1

TAF3 = settings: TAF3, GST-tagged; arrays performed twice, n of 4
Procedure, shortened: as §1

KDM5B (3) = settings: KDM5B (3), GST-tagged; arrays performed twice, n of 4
Procedure, shortened: as §1

KDM5B (1) = settings: KDM5B (1), GST-tagged; arrays performed twice, n of 4
Procedure, shortened: as §1

MLL5 = settings: MLL5, GST-tagged; arrays performed twice, n of 4
Procedure, shortened: as §1

PHF13 = settings: PHF13, GST-tagged; arrays performed twice, n of 4
Procedure, shortened: as §1

KDM7A = settings: KDM7A, GST-tagged; arrays performed twice, n of 4
Procedure, shortened: as §1

SP140L = settings: SP140L, GST-tagged; arrays performed twice, n of 4
Procedure, shortened: as §1

RAG2 = settings: RAG2, GST-tagged; arrays performed twice, n of 4
Procedure, shortened: as §1

| Substance | Array Heatmap value (peptide array binding signal) (KDM5A (3)) | Array Heatmap value (peptide array binding signal) (ING1) | Array Heatmap value (peptide array binding signal) (PHRF1 (RP)) | Array Heatmap value (peptide array binding signal) (KDM5A (1)) | Array Heatmap value (peptide array binding signal) (CHD5 (PPCC)) | Array Heatmap value (peptide array binding signal) (DPF2 (PPC2W2)) | Array Heatmap value (peptide array binding signal) (PHF21A) | Array Heatmap value (peptide array binding signal) (ING5) | Array Heatmap value (peptide array binding signal) (BAZ2B) | Array Heatmap value (peptide array binding signal) (PHF8) | Array Heatmap value (peptide array binding signal) (PHF23) | Array Heatmap value (peptide array binding signal) (PHF2) | Array Heatmap value (peptide array binding signal) (KDM4C (TTP)) | Array Heatmap value (peptide array binding signal) (MORC3 (CW)) | Array Heatmap value (peptide array binding signal) (ING4) | Array Heatmap value (peptide array binding signal) (TRIM66 (PB)) | Array Heatmap value (peptide array binding signal) (ING3) | Array Heatmap value (peptide array binding signal) (AIRE (PP)) | Array Heatmap value (peptide array binding signal) (DIDO1) | Array Heatmap value (peptide array binding signal) (ING2) | other results |
| --- | --- | --- | --- | --- | --- | --- | --- | --- | --- | --- | --- | --- | --- | --- | --- | --- | --- | --- | --- | --- | --- |
| H3K36ac (21-44): H3 21-44 | 0.4289 | 0.5601 | 0.4519 | 0.4894 | 0.5645 | 0.7036 | 0.4731 | 0.3615 | 0.4745 | 0.3497 | 0.5388 | 0.5459 | 0.4961 | 0.3556 | 0.4623 | 0.6317 | 0.4959 | 0.4538 | 0.7412 | 0.6078 | Array Heatmap value (peptide array binding signal) (CHD4 (PPCC)): 0.5911; Array Heatmap value (peptide array binding signal) (BPTF (PB)): 0.3596; Array Heatmap value (peptide array binding signal) (CHD5 (PCC)): 0.8362; Array Heatmap value (peptide array binding signal) (TAF3): 0.2714; Array Heatmap value (peptide array binding signal) (KDM5B (3)): 0.4828; Array Heatmap value (peptide array binding signal) (KDM5B (1)): 0.6899; Array Heatmap value (peptide array binding signal) (MLL5): 0.5602; Array Heatmap value (peptide array binding signal) (PHF13): 0.6346; Array Heatmap value (peptide array binding signal) (KDM7A): 0.3751; Array Heatmap value (peptide array binding signal) (SP140L): 0.3554; Array Heatmap value (peptide array binding signal) (RAG2): 0.2439 |
| H3K36me1 (21-44): H3 21-44 | 0.3829 | 0.4725 | 0.3839 | 0.422 | 0.4582 | 0.6617 | 0.4184 | 0.2888 | 0.3935 | 0.3097 | 0.4625 | 0.4036 | 0.4185 | 0.3108 | 0.3966 | 0.5169 | 0.3958 | 0.395 | 0.5926 | 0.5895 | Array Heatmap value (peptide array binding signal) (CHD4 (PPCC)): 0.5004; Array Heatmap value (peptide array binding signal) (BPTF (PB)): 0.3001; Array Heatmap value (peptide array binding signal) (CHD5 (PCC)): 0.7445; Array Heatmap value (peptide array binding signal) (TAF3): 0.2241; Array Heatmap value (peptide array binding signal) (KDM5B (3)): 0.3806; Array Heatmap value (peptide array binding signal) (KDM5B (1)): 0.6354; Array Heatmap value (peptide array binding signal) (MLL5): 0.4918; Array Heatmap value (peptide array binding signal) (PHF13): 0.5223; Array Heatmap value (peptide array binding signal) (KDM7A): 0.3181; Array Heatmap value (peptide array binding signal) (SP140L): 0.3238; Array Heatmap value (peptide array binding signal) (RAG2): 0.2054 |
| H3K36me2 (21-44): H3 21-44 | 0.4688 | 0.5436 | 0.4299 | 0.4698 | 0.5556 | 0.6298 | 0.4543 | 0.3689 | 0.4646 | 0.3633 | 0.5508 | 0.5405 | 0.482 | 0.3825 | 0.4701 | 0.5817 | 0.4835 | 0.4141 | 0.6879 | 0.637 | Array Heatmap value (peptide array binding signal) (CHD4 (PPCC)): 0.5705; Array Heatmap value (peptide array binding signal) (BPTF (PB)): 0.3564; Array Heatmap value (peptide array binding signal) (CHD5 (PCC)): 0.7486; Array Heatmap value (peptide array binding signal) (TAF3): 0.2772; Array Heatmap value (peptide array binding signal) (KDM5B (3)): 0.4626; Array Heatmap value (peptide array binding signal) (KDM5B (1)): 0.6467; Array Heatmap value (peptide array binding signal) (MLL5): 0.5622; Array Heatmap value (peptide array binding signal) (PHF13): 0.6322; Array Heatmap value (peptide array binding signal) (KDM7A): 0.3485; Array Heatmap value (peptide array binding signal) (SP140L): 0.3575; Array Heatmap value (peptide array binding signal) (RAG2): 0.2578 |

From PMC6979384, “Characterization of the plant homeodomain (PHD) reader family for their histone tail interactions” (Epigenetics & Chromatin, 2020)
